Reference: patent US20150126516A1, “PIPERIDINE COMPOUND AND ITS USE IN PEST CONTROL” (Sumitomo Chemical Company, Limited, priority 2012, published 2015)
Read-outs that look alike come from different tables or passages of the source.

Assays:
[1] = tested on: cotton aphids; assay: Controlling effect on cotton aphid, spray on inoculated cucumber seedlings; format: in vivo, Aphis gossypii; settings: 144 h; 500 ppm active ingredient, 20 ml sprayed on cucumber seedlings with about 30 cotton aphids, 6 days after spraying
[2] = tested on: diamondback moths; assay: Controlling effect on diamondback moth, spray on cabbages; format: in vivo; settings: Plutella xylostella, 120 h, read-out: Mortality rate
Experimental: (§1) Spray solutions for a test were prepared by diluting each formulation of the compounds 1, 11 to 14, 16, 17, 36, and 38 of the present invention, which were obtained from Formulation Example 5, with water so that the concentration of the active ingredients becomes 500 ppm.
Meanwhile, each of the above-described liquid solutions for the test was sprayed on cabbages in a third-leaf stage which were planted in polyethylene cups at a ratio of 20 mL/cup. After the liquid solutions were dried, the stems and leaves were cut and accommodated in each 50 mL cup. 5 second-instar larvae of diamondback moths were released in each cup, which was then covered with a lid. The cups were stored at 25° C., the number of surviving insects was counted after 5 days, and the mortality rate was obtained using the following formula.
(§2) Mortality(%)=(the number of dead insects/the number of insects provided for a test)×100

[3] = tested on: summer fruit tortrix moths (Adoxophyes orana); assay: Controlling effect on summer fruit tortrix moth, treated artificial feed; format: in vivo; settings: 168 h
Experimental: as §1, with “Liquid medicines” for “Spray solutions”, “3, 6, 10, 12,” for “11 to 14,”, “20, 21, 23, 26 to 29, 33, 38,” for “36,”, “42” for “38”
Silk Mates 2S (artificial feed: Nosan Corporation), which were sliced in a thickness of 2 mm, were placed on the bottom of polyethylene cups and 1 mL of each of the above-described liquid medicines for a test was irrigated thereto.
After air-drying, 30 first-instar larvae of summer fruit tortrix moths (Adoxophyes orana) were released in each cup, which was then covered with a lid. The cups were stored at 25° C., the number of surviving insects was counted after 7 days, and the mortality rate was obtained using the following formula.
as §2

[4] = tested on: common houseflies; assay: Controlling effect on common housefly, treated filter paper with sucrose bait; format: in vivo; settings: Musca domestica, 24 h, read-out: Mortality rate
Experimental: Liquid medicines for a test were prepared by diluting a formulation of the compound 28 of the present invention, which was obtained from Formulation Example 5, with water so that the concentration of the active ingredients becomes 500 ppm.
A filter paper having a diameter of 5.5 cm was spread on the bottom of a polyethylene cup having the same size as that of the filter paper, 0.7 ml ml of any one of the above-described liquid medicines for a test was added dropwise onto the filter paper, and 30 mg of sucrose was uniformly put therein as bait. 10 female imagoes of common houseflies were released in the polyethylene cup, which was then covered with a lid. The number of live and dead common houseflies were checked after 24 hours and the mortality rate was obtained using the following formula.
Mortality(%)=(the number of dead insectse/the number of insects provided for a test)×100

[5] = 500 ppm, 1 mL on artificial feed, 30 first-instar larvae, 25° C., after 7 days, read-out: Mortality
[6] = 500 ppm, 20 mL/cup sprayed on cabbages, 5 second-instar larvae, 25° C., after 5 days

SMILES | pest or weed control at 500 ppm [1] | mortality at 500 ppm [3] | further results
O=C(NCC1(c2ccccc2)CCN(CCc2ccccc2C(F)(F)F)CC1)c1ccccc1 [compound 11, N-((4-phenyl-1-(2-(trifluoromethyl)phenethyl)piperidin-4-yl)methyl)benzamide] | ≥ 90% | – | mortality at 500 ppm [2]: ≥ 80%
O=C(NCC1(c2cccc(Cl)c2)CCN(CCc2ccccc2C(F)(F)F)CC1)c1ccccc1Cl [compound 23, 2-chloro-N-((4-(3-chlorophenyl)-1-(2-(trifluoromethyl)phenethyl)piperidin-4-yl)methyl)benzamide] | – | – | mortality at 500 ppm [3, 5]: ≥ 90%
O=C(NCC1(c2ccccc2)CCN(CCc2ccccc2C(F)(F)F)CC1)c1ncccc1Cl [compound 21, 3-chloro-N-((4-phenyl-1-(2-(trifluoromethyl)phenethyl)piperidin-4-yl)methyl)picolinamide] | ≥ 90% | ≥ 90% | –
O=C(NCC1(c2ccccc2)CCN(CCc2ccc(C(F)(F)F)cc2)CC1)c1ccnc(Cl)c1 [compound 10, 2-chloro-N-((4-phenyl-1-(4-(trifluoromethyl)phenethyl)piperidin-4-yl)methyl)isonicotinamide] | – | – | mortality at 500 ppm [3, 5]: ≥ 90%
O=C(NCC1(c2ccccc2)CCN(CCc2ccccc2C(F)(F)F)CC1)c1ccccc1Cl [compound 12, 2-chloro-N-((4-phenyl-1-(2-(trifluoromethyl)phenethyl)piperidin-4-yl)methyl)benzamide] | ≥ 90% | ≥ 90% | mortality at 500 ppm [2]: ≥ 80%
O=C(NCC1(c2ccccc2)CCN(CCc2ccccc2C(F)(F)F)CC1)c1ccc(Cl)cc1 [compound 14, 4-chloro-N-((4-phenyl-1-(2-(trifluoromethyl)phenethyl)piperidin-4-yl)methyl)benzamide] | – | – | mortality at 500 ppm [2, 6]: ≥ 80%
Cc1ccccc1CCN1CCC(CNC(=O)c2cc(Cl)nc(Cl)c2)(c2ccccc2)CC1 [compound 27, 2,6-dichloro-N-((1-(2-methylphenethyl)-4-phenylpiperidin-4-yl)methyl)isonicotinamide] | ≥ 90% | ≥ 90% | –
O=C(NCC1(c2ccccc2)CCN(CCc2ccccc2)CC1)c1cc(Cl)nc(Cl)c1 [compound 20, 2,6-dichloro-N-((1-phenethyl-4-phenylpiperidin-4-yl)methyl)isonicotinamide] | ≥ 90% | ≥ 90% | –
O=C(NCC1(c2ccccn2)CCN(CCc2ccccc2C(F)(F)F)CC1)c1cc(Cl)nc(Cl)c1 [compound 38, 2,6-dichloro-N-((4-(pyridin-2-yl)-1-(2-(trifluoromethyl)phenethyl)piperidin-4-yl)methyl)isonicotinamide] | ≥ 90% | ≥ 90% | mortality at 500 ppm [2]: ≥ 80%
O=C(NCC1(c2ccccc2)CCN(CCc2ccccc2C(F)(F)F)CC1)c1cc(Cl)nc(Cl)c1 [compound 1, 2,6-dichloro-N-((4-phenyl-1-(2-(trifluoromethyl)phenethyl)piperidin-4-yl)methyl)isonicotinamide] | – | ≥ 90% | mortality at 500 ppm [2]: ≥ 80%
O=C(NCC1(c2ccccc2)CCN(CCc2ccccc2Cl)CC1)c1cc(Cl)nc(Cl)c1 [compound 29, 2,6-dichloro-N-((1-(2-chlorophenethyl)-4-phenylpiperidin-4-yl)methyl)isonicotinamide] | ≥ 90% | ≥ 90% | –
COc1ccccc1CCN1CCC(CNC(=O)c2cc(Cl)nc(Cl)c2)(c2ccccc2)CC1 [compound 26, 2,6-dichloro-N-((1-(2-methoxyphenethyl)-4-phenylpiperidin-4-yl)methyl)isonicotinamide] | ≥ 90% | ≥ 90% | –
COc1ccccc1C(=O)NCC1(c2ccccn2)CCN(CCc2ccccc2C(F)(F)F)CC1 [compound 42, 2-methoxy-N-((4-(pyridin-2-yl)-1-(2-(trifluoromethyl)phenethyl)piperidin-4-yl)methyl)benzamide] | ≥ 90% | ≥ 90% | –
O=C(NCC1(c2ccccc2)CCN(CCc2cccc(Cl)c2Cl)CC1)c1cc(Cl)nc(Cl)c1 [compound 33, 2,6-dichloro-N-((1-(2,3-dichlorophenethyl)-4-phenylpiperidin-4-yl)methyl)isonicotinamide] | – | – | mortality at 500 ppm [3, 5]: ≥ 90%
O=C(NCC1(c2ccccc2)CCN(CCc2ccccc2C(F)(F)F)CC1)c1ccccn1 [compound 16, N-((4-phenyl-1-(2-(trifluoromethyl)phenethyl)piperidin-4-yl)methyl)picolinamide] | ≥ 90% | ≥ 90% | mortality at 500 ppm [2]: ≥ 80%
O=C(NCC1(c2cccnc2)CCN(CCc2ccccc2C(F)(F)F)CC1)c1cc(Cl)nc(Cl)c1 [compound 39, 2,6-dichloro-N-((4-(pyridin-3-yl)-1-(2-(trifluoromethyl)phenethyl)piperidin-4-yl)methyl)isonicotinamide] | ≥ 90% | – | –
O=C(NCC1(c2ccccc2Cl)CCN(CCc2ccccc2C(F)(F)F)CC1)c1ccccc1Cl [compound 25, 2-chloro-N-((4-(2-chlorophenyl)-1-(2-(trifluoromethyl)phenethyl)piperidin-4-yl)methyl)benzamide] | ≥ 90% | – | –
O=C(NCC1(c2ccccc2)CCN(CCc2ccccc2C(F)(F)F)CC1)c1cccc(Cl)c1 [compound 13, 3-chloro-N-((4-phenyl-1-(2-(trifluoromethyl)phenethyl)piperidin-4-yl)methyl)benzamide] | – | – | mortality at 500 ppm [2, 6]: ≥ 80%
O=C(NCC1(c2ccccc2)CCN(CCc2ccccc2)CC1)c1ccnc(Cl)c1 [compound 2, 2-chloro-N-((1-phenethyl-4-phenylpiperidin-4-yl)methyl)isonicotinamide] | ≥ 90% | – | –
O=C(NCC1(c2ccccc2)CCN(CCc2ccccc2)CC1)c1ccc(Cl)cc1 [compound 6, 4-chloro-N-((1-phenethyl-4-phenylpiperidin-4-yl)methyl)benzamide] | – | – | mortality at 500 ppm [3, 5]: ≥ 90%
O=C(NCC1(c2ccccc2)CCN(CCc2ccccc2C(F)(F)F)CC1)c1cc(Cl)cc(Cl)c1 [compound 17, 3,5-dichloro-N-((4-phenyl-1-(2-(trifluoromethyl)phenethyl)piperidin-4-yl)methyl)benzamide] | – | – | mortality at 500 ppm [3, 5]: ≥ 90%; mortality at 500 ppm [2, 6]: ≥ 80%
COc1ccccc1C(=O)NCC1(c2ccccc2)CCN(CCc2ccccc2C(F)(F)F)CC1 [compound 28, 2-methoxy-N-((4-phenyl-1-(2-(trifluoromethyl)phenethyl)piperidin-4-yl)methyl)benzamide] | ≥ 90% | ≥ 90% | mortality at 500 ppm [4]: ≥ 70%
O=C(NCC1(c2ncccc2F)CCN(CCc2ccccc2C(F)(F)F)CC1)c1ccnc(Cl)c1 [compound 40, 2-chloro-N-((4-(3-fluoropyridin-2-yl)-1-(2-(trifluoromethyl)phenethyl)piperidin-4-yl)methyl)isonicotinamide] | ≥ 90% | – | –
O=C(NCC1(c2ccccn2)CCN(CCc2ccccc2C(F)(F)F)CC1)c1ccccc1Cl [compound 41, 2-chloro-N-((4-(pyridin-2-yl)-1-(2-(trifluoromethyl)phenethyl)piperidin-4-yl)methyl)benzamide] | ≥ 90% | – | –
O=C(NCC1(c2ccccc2)CCN(CCc2ccccc2C(F)(F)F)CC1)c1cccnc1Cl [compound 24, 2-chloro-N-((4-phenyl-1-(2-(trifluoromethyl)phenethyl)piperidin-4-yl)methyl)nicotinamide] | ≥ 90% | – | –
O=C(NCC1(c2ccccc2)CCN(CCc2ccccc2C(F)(F)F)CC1)c1ccnc(Cl)c1 [compound 3, 2-chloro-N-((4-phenyl-1-(2-(trifluoromethyl)phenethyl)piperidin-4-yl)methyl)isonicotinamide] | ≥ 90% | ≥ 90% | –
O=C(NCC1(c2ccccc2)CCN(CCc2ccccc2C(F)(F)F)CC1)c1c(F)cc(F)cc1F [compound 36, 2,4,6-trifluoro-N-((4-phenyl-1-(2-(trifluoromethyl)phenethyl)piperidin-4-yl)methyl)benzamide] | ≥ 90% | – | mortality at 500 ppm [2]: ≥ 80%
